Where two headings read alike, the source gives them in different places.
Key:
mouse dorsal skin = type: in vivo; conditions: for Effect on hypodermal thickness: GDX animals of both sexes, p<0.01; for Dermis % (proportion of skin layer) / Epidermis % (proportion of skin layer) / Hypodermis % (proportion of skin layer) / Dermis T (thickness) / Epidermis T (thickness) / Hypodermis T (thickness): 3 weeks treatment; for Dermis T (thickness) / Epidermis T (thickness) / Hypodermis T (thickness): mean ± SEM
Method: (§1) Fifty six adult male and female C57BL6 mice 13-15 weeks of age were obtained from Harlan Laboratory (Indiana, USA). […] Animals of intact and GDX control groups were treated with the vehicle alone during the same period. Six hours after the last treatment, all animals were sacrificed.
Since DHT is known to be poorly active by the oral route, it was injected subcutaneously. To determine the DHT dose, a preliminary dose-range study was performed (see supplementary online material, online Table S1).
After shaving the long hair, the dorsal skin was excised, flattened and immediately immersed in 10% buffered formalin. A sample was embedded in paraffin blocks from which 4 μm sections were cut and routinely stained.
Under the light microscope, measurements were performed using the IMAGE-PRO PLUS (Media Cybernetics, USA). Twenty-five readings were scored from each skin layer of each animal. The epidermal thickness was measured from stratum basale to stratum granulosum (excluding stratum corneum), whereas the dermal thickness was the distance between the epidermis and the hypodermis. Finally, the hypodermal thickness was measured as the distance between the dermis and the panniculus carnosus.

androgen receptor (AR) = experiment: Immunohistochemistry of androgen receptor in epidermis of mouse dorsal skin; type: in vivo; conditions: GDX males and females, 3 weeks treatment
Method: as §1

[1] = men and women 60-79 years, oral 50 mg once daily, cited from earlier work
[2] = aged individuals, particularly women >70 years; cited from earlier work
[3] = GDX females, versus GDX control

| SMILES | Effect on hypodermal thickness (mouse dorsal skin) | Dermis % (proportion of skin layer) (mouse dorsal skin; GDX female mice) | Epidermis % (proportion of skin layer) (mouse dorsal skin; GDX female mice) | Hypodermis % (proportion of skin layer) (mouse dorsal skin; GDX female mice) | Dermis T (thickness) (mouse dorsal skin; GDX female mice) | Epidermis T (thickness) (mouse dorsal skin; GDX female mice) | Hypodermis T (thickness) (mouse dorsal skin; GDX female mice) | Effect on dermal thickness (in words) (mouse dorsal skin; GDX females) | Increase in dermal thickness (mouse dorsal skin; [3]) | Dermis % (proportion of skin layer) (mouse dorsal skin; GDX male mice) | Epidermis % (proportion of skin layer) (mouse dorsal skin; GDX male mice) | Hypodermis % (proportion of skin layer) (mouse dorsal skin; GDX male mice) | Dermis T (thickness) (mouse dorsal skin; GDX male mice) | Epidermis T (thickness) (mouse dorsal skin; GDX male mice) | Hypodermis T (thickness) (mouse dorsal skin; GDX male mice) | also measured |
| --- | --- | --- | --- | --- | --- | --- | --- | --- | --- | --- | --- | --- | --- | --- | --- | --- |
| C[C@]12CC[C@@H]3c4ccc(O)cc4CC[C@H]3[C@@H]1CC[C@@H]2O [E2] | markedly decreased |  |  |  |  |  |  |  |  |  |  |  |  |  |  | AR labeling / expression in epidermal nuclei (androgen receptor (AR)): weak AR labeling |
| C[C@]12CC[C@H](O)CC1=CC[C@@H]1[C@@H]2CC[C@]2(C)C(=O)CC[C@@H]12 [DHEA, dehydroepiandrosterone] | markedly decreased | 75.8% | 3.2% | 21% | 249 ± 11.8^+ μm | 10.5 ± 0.3^+ μm | 69 ± 4.5^++ μm | increase | 19% | 92.8% | 1.7% | 5.5% | 486 ± 28.7 μm | 8.9 ± 0.3 μm | 29 ± 6.2 μm | Increase in epidermal thickness (mouse dorsal skin; GDX females, versus GDX control, p<0.05): 13%; Facial skin pigmentation (yellowness) ([1]; 1 year): significantly decreased; Other components of skin colour (lightness and redness) ([1]; 1 year): remained stable; Skin surface hydratation ([1]; after 12 months): significantly increased; Sebum production [2]: increase |
| C[C@]12CCC(=O)C[C@@H]1CC[C@@H]1[C@@H]2CC[C@]2(C)[C@@H](O)CC[C@@H]12 [DHT, 5α-androstane-17β-ol-3-one] | markedly decreased | 79.5% | 2.5% | 18% | 307 ± 13.3^++ μm | 9.6 ± 0.2 μm | 70 ± 4.6^++ μm | increase | 47% | 93% | 2.1% | 4.9% | 451 ± 24.1 μm | 10 ± 0.2 μm | 24 ± 1.9 μm |  |

— patent US20060178352A1, “Use of androgens to reduce the likelihood of acquiring or to treat skin aging” (Endorecherche, Inc., priority 2004, published 2006)
